From the supplement of paper PMC10307832

Compound: COC1=C(C=C(C=C1)C2=CC3=NC=CN3C(=N2)NC4=C(C=CC=N4)C(=O)N)OC [BAY61-3606] + Nc1nc2[nH]cc(CCc3ccc(C(=O)N[C@@H](CCC(=O)O)C(=O)O)cc3)c2c(=O)[nH]1 [Pemetrexed] (partner 0.2 µM)
Assay: relative viability (nuclei count vs DMSO), 5 days (fraction); higher = more cells survive
Conditions: first compound 2 µM
Outline: (§1)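 For relative viability, nuclei counts in treated wells were divided by those in vehicle wells. Lung cancer cell lines had been pin-tool dosed in 1536-well plates the day after seeding and cultured for 5 days, then fixed and stained in one step (final 0.05% Triton X-100, 1% formaldehyde, 1 ug/ml Hoechst) and imaged at 4×. Doses were one drug alone or a fixed anchor-drug dose plus five library-drug doses (not always all listed) in √10 steps, and values are duplicate-plate medians.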

Cell Line | relative viability
NCI-H1944 | 0.518
NCI-H2170 | 0.269
SK-MES-1 | 0.713

Compound: COc1cccc2c1C(=O)c1c(O)c3c(c(O)c1C2=O)C[C@@](O)(C(=O)CO)C[C@@H]3O[C@H]1C[C@H](N)[C@H](O)[C@H](C)O1 [Doxorubicin] + CC(C)C[C@H](NC(=O)[C@H](Cc1ccccc1)NC(=O)c1cnccn1)B(O)O [Bortezomib] (partner 0.002 µM)
Assay: as above
Conditions: first compound 0.001 µM
Outline: as §1

Cell Line | relative viability
RERF-LC-KJ | 1.03
NCI-H1651 | 0.987
EBC-1 | 0.589
NCI-H1734 | 0.867
NCI-H2009 | 0.914
SW 1573 | 0.98
LCLC-97TM1 | 0.528
NCI-H661 | 0.919
NCI-H2228 | 0.88
EMC-BAC-2 | 1.11
NCI-H2087 | 0.6
Calu-6 | 0.897
HCC-44 | 0.947
NCI-H1703 | 0.234
NCI-H727 | 0.794
NCI-H2126 | 1.08
H3255 | 0.675
COR-L23 | 1.04
COR-L 105 | 0.787
LC-2-ad | 1.01
LU99A | 1.1
IA-LM | 0.819
NCI-H1299 | 1.04
NCI-H1563 | 0.716
NCI-H1792 | 0.929
ABC-1 | 0.304

Same assay, conditions: first compound 0.003162 µM

Cell Line | relative viability
RERF-LC-KJ | 1.2
NCI-H1651 | 0.958
EBC-1 | 0.52
NCI-H1734 | 1.09
NCI-H2009 | 1.1
NCI-H596 | 1.26
SK-LU-1 | 1.19
SW 1573 | 1.1
LCLC-97TM1 | 0.434
NCI-H661 | 0.849
NCI-H2228 | 1.05
EMC-BAC-2 | 1.1
NCI-H2087 | 0.7
Calu-6 | 1.01
HCC-44 | 0.988
NCI-H1703 | 0.324
NCI-H727 | 0.985
NCI-H2126 | 1.12
H3255 | 0.889
COR-L23 | 0.996
COR-L 105 | 0.71
LC-2-ad | 0.962
LU99A | 1.23
IA-LM | 0.877
NCI-H1299 | 1.03
NCI-H1563 | 0.772
NCI-H1792 | 1.1
ABC-1 | 0.324

Same assay, conditions: first compound 0.01 µM

Cell Line | relative viability
RERF-LC-KJ | 1.03
NCI-H1651 | 0.869
EBC-1 | 0.542
NCI-H1734 | 0.89
NCI-H2009 | 0.912
NCI-H596 | 1.01
SK-LU-1 | 1.25
SW 1573 | 0.817
LCLC-97TM1 | 0.265
NCI-H661 | 0.836
NCI-H2228 | 0.617
EMC-BAC-2 | 0.997
NCI-H2087 | 0.869
Calu-6 | 0.804
HCC-44 | 0.891
NCI-H1703 | 0.25
NCI-H727 | 0.656
NCI-H2126 | 1.1
H3255 | 0.856
COR-L23 | 0.872
COR-L 105 | 0.74
LC-2-ad | 0.995
LU99A | 1.14
IA-LM | 0.648
NCI-H1299 | 1.01
NCI-H1563 | 0.594
NCI-H1792 | 1
ABC-1 | 0.364

Same assay, conditions: first compound 0.03162 µM

Cell Line | relative viability
RERF-LC-KJ | 0.809
NCI-H1651 | 0.842
EBC-1 | 0.363
NCI-H1734 | 0.588
NCI-H2009 | 0.572
NCI-H596 | 0.928
SK-LU-1 | 0.945
SW 1573 | 0.466
LCLC-97TM1 | 0.151
NCI-H661 | 0.776
NCI-H2228 | 0.254
EMC-BAC-2 | 0.518
NCI-H2087 | 0.678
Calu-6 | 0.408
HCC-44 | 0.949
NCI-H1703 | 0.165
NCI-H727 | 0.658
NCI-H2126 | 1.1
H3255 | 0.589
COR-L23 | 0.447
COR-L 105 | 0.41
LC-2-ad | 0.834
LU99A | 0.764
IA-LM | 0.404
NCI-H1299 | 1.07
NCI-H1563 | 0.515
NCI-H1792 | 0.898
ABC-1 | 0.273

Same assay, conditions: first compound 0.1 µM

Cell Line | relative viability
RERF-LC-KJ | 0.967
NCI-H1651 | 0.902
EBC-1 | 0.222
NCI-H1734 | 0.429
NCI-H2009 | 0.266
NCI-H596 | 0.972
SK-LU-1 | 0.671
SW 1573 | 0.339
LCLC-97TM1 | 0.0908
NCI-H661 | 0.865
NCI-H2228 | 0.124
EMC-BAC-2 | 0.451
NCI-H2087 | 0.55
Calu-6 | 0.248
HCC-44 | 0.828
NCI-H1703 | 0.0968
NCI-H727 | 0.613
NCI-H2126 | 1.13
H3255 | 0.306
COR-L23 | 0.156
COR-L 105 | 0.256
LC-2-ad | 0.544
LU99A | 0.5
IA-LM | 0.136
NCI-H1299 | 0.962
NCI-H1563 | 0.421
NCI-H1792 | 0.924
ABC-1 | 0.251

Compound: COc1cccc2c1C(=O)c1c(O)c3c(c(O)c1C2=O)C[C@@](O)(C(=O)CO)C[C@@H]3O[C@H]1C[C@H](N)[C@H](O)[C@H](C)O1 [Doxorubicin] + Cc1nc(Nc2ncc(C(=O)Nc3c(C)cccc3Cl)s2)cc(N2CCN(CCO)CC2)n1 [Dasatinib] (partner 0.075 µM)
Assay: as above
Conditions: first compound 0.001 µM
Outline: as §1

Cell Line | relative viability
NCI-H2342 | 0.308
NCI-H1623 | 0.502
RERF-LC-KJ | 0.85
NCI-H1651 | 0.334
NCI-H1734 | 0.517
NCI-H2009 | 0.308
NCI-H596 | 0.663
SK-LU-1 | 0.158
SW 1573 | 0.544
LCLC-97TM1 | 0.836
NCI-H661 | 0.829
NCI-H2228 | 0.45
EMC-BAC-2 | 0.357
NCI-H727 | 0.271
